Data published in the NIST ThermoML archive (doi:10.1016/j.jct.2009.11.003).
Several values for one entry are separate records, joined by “and”; a condition that tells them apart may be missing. Equal entries are not always repeated.

What was measured:
[1] = molar enthalpy of vaporization or sublimation; settings: Crystal, Static calorimetry
[2] = Crystal, Calculated from knudsen effusion weight loss

Nc1c(Cl)cc([N+](=O)[O-])cc1[N+](=O)[O-] [2-chloro-4,6-dinitrobenzenamine]
Settings	molar enthalpy [kcal/mol]	vapor or sublimation pressure
[1], 298.15 K	27.5	–
[1], 369.13 K	27.3	–
[2], 358.1 K	–	0.000105 kPa and 0.000103 kPa and 0.00011 kPa
[2], 360.15 K	–	0.00013 kPa and 0.000133 kPa and 0.000128 kPa
[2], 362.16 K	–	0.000164 kPa and 0.000161 kPa and 0.000173 kPa
[2], 364.12 K	–	0.000202 kPa and 0.000198 kPa and 0.000197 kPa
[2], 366.17 K	–	0.000246 kPa and 0.000248 kPa and 0.00024 kPa
[2], 368.17 K	–	0.000302 kPa and 0.000297 kPa and 0.000296 kPa
[2], 370.11 K	–	0.000361 kPa and 0.000368 kPa
[2], 372.08 K	–	0.000455 kPa and 0.00044 kPa and 0.000426 kPa
[2], 374.14 K	–	0.00055 kPa and 0.000536 kPa
[2], 376.25 K	–	0.000684 kPa and 0.000662 kPa and 0.000663 kPa
[2], 378.14 K	–	0.000816 kPa and 0.000824 kPa and 0.000797 kPa
[2], 380.16 K	–	0.000996 kPa and 0.000971 kPa and 0.000963 kPa

Nc1c([N+](=O)[O-])cc(Cl)cc1[N+](=O)[O-] [4-chloro-2,6-dinitroaniline]
Settings	molar enthalpy [kcal/mol]	vapor or sublimation pressure
[1], 298.15 K	25.1	–
[1], 347.1 K	25.02	–
[2], 335.12 K	–	7.67e-05 kPa and 7.72e-05 kPa and 7.84e-05 kPa
[2], 338.19 K	–	0.00011 kPa and 0.000108 kPa and 0.000106 kPa
[2], 341.17 K	–	0.00015 kPa and 0.000145 kPa and 0.000146 kPa
[2], 344.17 K	–	0.000202 kPa and 0.000201 kPa and 0.000207 kPa
[2], 347.18 K	–	0.000287 kPa and 0.000284 kPa and 0.000277 kPa
[2], 350.12 K	–	0.000388 kPa and 0.000386 kPa
[2], 353.12 K	–	0.00052 kPa and 0.000532 kPa and 0.000527 kPa
[2], 356.17 K	–	0.000715 kPa and 0.000702 kPa and 0.00071 kPa
[2], 359.16 K	–	0.000964 kPa and 0.000935 kPa and 0.000922 kPa
